Experimental findings from patent US8642788B2, “Activators of executioner procaspases 3, 6 and 7” (The Regents of the University of California, priority 2008, dated 2014) are described below.

Assay [1] concerns the target T1, procaspase-3 (Homo sapiens, UniProt P42574).
T1 construct: His6 (C); made in house; host or cells: E. coli BL21(DE3)RP, pET-23b
T1 sequence (P42574 1-277): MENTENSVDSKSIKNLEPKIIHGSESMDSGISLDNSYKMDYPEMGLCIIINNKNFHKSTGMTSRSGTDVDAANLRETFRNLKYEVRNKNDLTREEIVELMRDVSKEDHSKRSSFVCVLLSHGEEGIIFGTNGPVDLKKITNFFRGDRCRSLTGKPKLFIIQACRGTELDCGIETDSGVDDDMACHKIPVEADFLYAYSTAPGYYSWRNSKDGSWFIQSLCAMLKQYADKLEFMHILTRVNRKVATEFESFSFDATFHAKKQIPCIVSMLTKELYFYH
In words: Executioner procaspase-3 activation assay (Ac-DEVD-AFC fluorogenic substrate). The class given is biochemical. To be noted: incubation with compound for 5 h at 37° C.; 100 nM procaspase; read-out: Procaspase Activation 3. The method, then: The executioner procaspase-3, -6 and -7 activation assay protocol involves incubating the target protein at the physiologically-relevant concentration of 100 nM with activating compounds (ranging from 100 nM to 100 uM) in a total volume of 50 μL consisting of a reaction buffer of 50 mM HEPES, pH 7.4, 50 mM KCl, 1 mM DTT and 0.01% Triton-X100 (to reduce false positive hits due to compound aggregation). […] All components of the assay including protein, substrate and inhibitor are stored as frozen aliquots and thawed immediately prior to the assay.

The target in assay [2] is T2, procaspase-6 (Homo sapiens, UniProt P55212).
T2 sequence (P55212 1-293): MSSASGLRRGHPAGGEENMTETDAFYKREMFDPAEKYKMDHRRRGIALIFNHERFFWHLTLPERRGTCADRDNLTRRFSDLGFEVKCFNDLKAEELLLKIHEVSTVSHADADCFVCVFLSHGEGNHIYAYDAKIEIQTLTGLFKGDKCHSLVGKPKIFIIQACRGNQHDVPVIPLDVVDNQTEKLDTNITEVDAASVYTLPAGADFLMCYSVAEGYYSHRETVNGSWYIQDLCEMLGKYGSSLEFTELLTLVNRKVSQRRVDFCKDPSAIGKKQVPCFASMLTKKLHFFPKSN
In words: Executioner procaspase-6 activation assay (Ac-VEID-AFC fluorogenic substrate). The class given is biochemical. To be noted: incubation with compound for 5 h at 37° C.; 100 nM procaspase. The method, then:
The executioner procaspase-3, -6 and -7 activation assay protocol involves incubating the target protein at the physiologically-relevant concentration of 100 nM with activating compounds (ranging from 100 nM to 100 uM) in a total volume of 50 μL consisting of a reaction buffer of 50 mM HEPES, pH 7.4, 50 mM KCl, 1 mM DTT and 0.01% Triton-X100 (to reduce false positive hits due to compound aggregation). The procaspase/small molecule incubations are then agitated at 37° C. and assayed at various time points by addition of the fluorogenic peptide substrate 7-Amino-4-trifluoromethylcoumarin-DEVD (Ac-DEVD-AFC) (procaspases-3, -7) or Ac-VEID-AFC (procaspase-6) to a final concentration of 25 μM and analyzed by a kinetic 30 minute assay (excitation 365 nm and emission 495 nm). The final concentration of DMSO in each well is 3% and has no effect on enzyme stability or activity. […] All components of the assay including protein, substrate and inhibitor are stored as frozen aliquots and thawed immediately prior to the assay.
Tables 1 and 2. Procaspase activation as a result of incubation with compound for 5 h at 37° C. (+++ EC50˜0.5-10 μM; ++ EC50˜10-50 μM; + EC50˜50-200 μM; -no activation observed; ND not determined).

`COc1cccc2cc(C(=O)Nc3cccc(-c4cn5ccccc5n4)c3)oc12` [compound 179, 7-Methoxy-benzofuran-2-carboxylic acid (3-imidazo[1,2-a]pyridin-2-yl-phenyl)-amide]: the EC50 in assay [1] and in assay [2] was 10 to 50 µM in each case. Turning to `O=C(Nc1cccc(-c2cn3ccccc3n2)c1)c1cc2cc(OC(F)(F)F)ccc2oc1=O` [compound 9, 6-Trifluoromethoxy-2-oxo-2H-chromene-3-carboxylic acid (3-imidazo[1,2-a]pyridin-2-yl-phenyl)-amide], the EC50 in assay [1] and in assay [2] was more than 100 µM throughout.

With `O=C(Nc1cccc(-c2cn3ccccc3n2)c1)c1cc2ccc(O)c(O)c2oc1=O` [compound 3, 7,8-Dihydroxy-2-oxo-2H-chromene-3-carboxylic acid (3-imidazo[1,2-a]pyridin-2-yl-phenyl)-amide], the EC50 in assay [1] was 50 to 200 µM; in assay [2], more than 100 µM.

As for `O=C(Nc1cccc(-c2cn3ccccc3n2)c1)C1=Cc2cc(Cl)ccc2OC1` [compound 180, 6-Chloro-2H-chromene-3-carboxylic acid (3-imidazo[1,2-a]pyridin-2-yl-phenyl)-amide], the values for the EC50 in assay [1] and in assay [2] were 50 to 200 µM and more than 100 µM, respectively. In the case of `O=C(Nc1cccc(-c2cn3ccccc3n2)c1)c1cc2cccc(O)c2oc1=O` [1541A, 8-Hydroxy-2-oxo-2H-chromene-3-carboxylic acid (3-imidazo[1,2-a]pyridin-2-yl-phenyl)-amide], the figures for the EC50 in assay [1] and in assay [2] were 0.5 to 10 µM and more than 100 µM, respectively. Regarding `COc1cccc2cc(C(=O)Nc3ccc(-c4nc5ccccc5[nH]4)cc3)c(=O)oc12` [compound 183, 8-Methoxy-2-oxo-2H-chromene-3-carboxylic acid [4-(1H-benzoimidazol-2-yl)-phenyl]-amide], the EC50 in assay [1] was in the range of 0.5 to 10 µM. For `COc1cccc2cc(C(=O)Nc3cccc(-c4cn5ccccc5n4)c3)c(=O)oc12` [compound 1541, 8-Methoxy-2-oxo-2H-chromene-3-carboxylic acid (3-imidazo[1,2-a]pyridin-2-yl-phenyl)-amide], the EC50 in assay [2] is 0.5 to 10 µM. With `COc1ccc2oc(=O)c(C(=O)Nc3cccc(-c4cn5ccccc5n4)c3)cc2c1` [compound 6, 6-Methoxy-2-oxo-2H-chromene-3-carboxylic acid (3-imidazo[1,2-a]pyridin-2-yl-phenyl)-amide], the EC50 in assay [1] and in assay [2] was more than 100 µM each time. As to `COc1ccc2cc(C(=O)Nc3cccc(-c4cn5ccccc5n4)c3)c(=O)oc2c1OC` [compound 8, 7,8-Dimethoxy-2-oxo-2H-chromene-3-carboxylic acid (3-imidazo[1,2-a]pyridin-2-yl-phenyl)-amide], the EC50 in assay [1] is more than 100 µM. On the same count and under the same terms, to `O=C(Nc1cccc(-c2cn3ccccc3n2)c1)c1cc2ccccc2oc1=O` [compound 13, 2-oxo-2H-chromene-3-carboxylic acid (3-imidazo[1,2-a]pyridin-2-yl-phenyl)-amide] belongs more than 100 µM. As for `O=C(Nc1cccc(-c2cn3ccccc3n2)c1)c1cc2cccc(F)c2oc1=O` [compound 2, 8-Fluoro-2-oxo-2H-chromene-3-carboxylic acid (3-imidazo[1,2-a]pyridin-2-yl-phenyl)-amide], the EC50 in assay [1] and in assay [2] was 0.5 to 10 µM throughout.

As to `O=C(Nc1cccc(-c2cn3ccccc3n2)c1)c1cc2cccc(Br)c2oc1=O` [compound 4, 8-Bromo-2-oxo-2H-chromene-3-carboxylic acid (3-imidazo[1,2-a]pyridin-2-yl-phenyl)-amide], the EC50 in assay [1] and in assay [2] was more than 100 µM throughout. Turning to `COc1ccc2cc(C(=O)Nc3cccc(-c4cn5ccccc5n4)c3)c(=O)oc2c1` [1541C, 7-Methoxy-2-oxo-2H-chromene-3-carboxylic acid (3-imidazo[1,2-a]pyridin-2-yl-phenyl)-amide], the EC50 in assay [1] and in assay [2] was more than 100 µM in each case. On to `COc1cccc2cc(C(=O)Nc3cccc(-c4ccncc4)c3)c(=O)oc12` [compound 20, 8-Methoxy-2-oxo-2H-chromene-3-carboxylic acid (3-pyridin-4-yl-phenyl)-amide], for which the EC50 in assay [1] and in assay [2] was more than 100 µM each time. For the molecule `O=C(Nc1cccc(-c2cn3ccccc3n2)c1)c1cc2cc(O)ccc2oc1=O` [compound 11, 6-Hydroxy-2-oxo-2H-chromene-3-carboxylic acid (3-imidazo[1,2-a]pyridin-2-yl-phenyl)-amide], the EC50 in assay [1] and in assay [2] was more than 100 µM throughout. Turning to `COc1cccc2cc(C(=O)Nc3cccc(-c4nc5ccccc5[nH]4)c3)c(=O)oc12` [1541F, 8-Methoxy-2-oxo-2H-chromene-3-carboxylic acid [3-(1H-benzoimidazol-2-yl)-phenyl]-amide], the EC50 in assay [1] and in assay [2] was more than 100 µM in each case. For the molecule `CCOc1cccc2cc(C(=O)Nc3cccc(-c4cn5ccccc5n4)c3)c(=O)oc12` [compound 5, 8-Ethoxy-2-oxo-2H-chromene-3-carboxylic acid (3-imidazo[1,2-a]pyridin-2-yl-phenyl)-amide], the EC50 in assay [1] and in assay [2] was more than 100 µM throughout. On to `O=C(Nc1cccc(-c2cn3ccccc3n2)c1)c1cc2cc(Br)ccc2oc1=O` [compound 1, 6-Bromo-2-oxo-2H-chromene-3-carboxylic acid (3-imidazo[1,2-a]pyridin-2-yl-phenyl)-amide], for which the EC50 in assay [1] and in assay [2] was 50 to 200 µM each time. As to `COc1cccc2cc(C(=O)Nc3cccc(N4CCOCC4)c3)c(=O)oc12` [1541I, 8-Methoxy-2-oxo-2H-chromene-3-carboxylic acid (3-morpholin-4-yl-phenyl)-amide], the EC50 in assay [1] and in assay [2] was more than 100 µM in each case. Regarding `COc1cc(N2CCOCC2)c2oc(=O)c(C(=O)Nc3cccc(-c4cn5ccccc5n4)c3)cc2c1` [compound 14, 6-Methoxy-8-morpholin-4-yl-2-oxo-2H-chromene-3-carboxylic acid (3-imidazo[1,2-a]pyridin-2-yl-phenyl)-amide], the EC50 in assay [1] and in assay [2] was more than 100 µM each time. Turning to `O=C(Nc1cccc(-c2cn3ccccc3n2)c1)c1cc2cc(I)ccc2oc1=O` [compound 10, 6-Iodo-2-oxo-2H-chromene-3-carboxylic acid (3-imidazo[1,2-a]pyridin-2-yl-phenyl)-amide], the EC50 in assay [1] and in assay [2] was more than 100 µM each time. Regarding `COc1cc(CN2CCOCC2)c2oc(=O)c(C(=O)Nc3cccc(-c4cn5ccccc5n4)c3)cc2c1` [1541D, 6-Methoxy-8-morpholin-4-ylmethyl-2-oxo-2H-chromene-3-carboxylic acid (3-imidazo[1,2-a]pyridin-2-yl-phenyl)-amide], the EC50 in assay [1] and in assay [2] was more than 100 µM throughout.

For `O=C(Nc1cccc(-c2cn3ccccc3n2)c1)c1cc2cc(O)c(O)cc2oc1=O` [compound 7, 6,7-Dihydroxy-2-oxo-2H-chromene-3-carboxylic acid (3-imidazo[1,2-a]pyridin-2-yl-phenyl)-amide], the EC50 in assay [1] and in assay [2] was more than 100 µM in each case. With `COc1cccc2cc(C(=O)Nc3ccccc3)c(=O)oc12` [1541H, 8-Methoxy-2-oxo-2H-chromene-3-carboxylic acid phenylamide], the EC50 in assay [1] and in assay [2] was more than 100 µM each time. With `O=C(Nc1cccc(-c2cn3ccccc3n2)c1)c1cc2cccc(OC(F)(F)F)c2oc1=O` [1541B, 2-Oxo-8-trifluoromethoxy-2H-chromene-3-carboxylic acid (3-imidazo[1,2-a]pyridin-2-yl-phenyl)-amide], the EC50 in assay [1] and in assay [2] was more than 100 µM throughout.

For the molecule `COc1cccc2c1OCC(C(=O)Nc1cccc(-c3cn4ccccc4n3)c1)=C2` [compound 182, 8-Methoxy-2H-chromene-3-carboxylic acid (3-imidazo[1,2-a]pyridin-2-yl-phenyl)-amide], the EC50 in assay [1] and in assay [2] was more than 100 µM throughout.
